From patent US8658424B2, “Myelinating oligodendrocyte precursor populations” (Wisconsin Alumni Research Foundation, priority 2007, dated 2014)
Entries after “also recorded” stand apart in the source; their conditions may differ.

Assays:
Assay type in all cases: cell-based, human
[1] = tested on: hESC-derived Olig2 progenitors; assay: Differentiation of Olig2 progenitors to OPCs in glial differentiation medium (marker immunostaining); details: for timing of OPC differentiation (PDGFRα, NG2, Sox10): added to Olig2/Nkx2.2 progenitors in glial differentiation medium; for OLIG2/PDGFRa double positive OPCs: day 100, treatment from Olig2 induction; for PDGFRα+ OPCs (in words): treated between days 24 and 35, later OPC differentiation
Procedure: Olig2-expressing progenitors usually appeared around day 24 (Li et al., supra). […] FGF2 (R&D; 10 ng/ml) and/or EGF (Sigma; 10 ng/ml) was added to examine their effect on motor neuron differentiation and progenitor proliferation.
From the 5th week of differentiation, FGF2 was replaced with a cocktail of cytokines consisting of PDGFAA, IGF1 and NT3 (all at 10 ng/ml). Du Z, et al., “Induced expression of Olig2 is sufficient for oligodendrocyte specification but not for motoneuron specification and astrocyte repression,” Mol. Cellular Neurosci. […] SHH or purmorphamine was removed around 10 weeks when PDGFRα+ OPCs appeared. The cultures were fed every other day and the progenitor clusters were broken into smaller pieces with polished glass Pasteur pipette every week.
(§1) Immuno-fluorescent staining on coverslip cultures and free-floating brain sections was described previously. […] Specificity of the antibodies was first tested in embryonic brain and spinal cord tissues. Li et al., supra; and Pankratz et al., supra. Negative controls without primary and secondary antibody were performed in all experiments to monitor non-specific staining. The stained samples were visualized with a Nikon TE600 fluorescent scope equipped with a SPOT camera and software (Diagnostic Instruments; Sterling Heights, Mich.), as well as a Nikon C1 laser scanning confocal microscope.
(§2) At least three coverslips were counted for every group. The experiments were repeated three times with different batches of cells.

[2] = tested on: hESC-derived Olig2 progenitors; assay: Olig2/Nkx2.2 co-expression in Olig2 progenitors (immunostaining); details: for OLIG2+/NKX2.2+ population: gliogenic progenitors treated day 35 to 50 (purmorphamine 1 uM, cyclopamine 5 μM), examined day 50; for cells expressing Olig2 and/or Nkx2.2: treated day 24 to 35, examined day 35
Text: (§3) Olig2-expressing progenitors usually appeared around day 24 (Li et al., supra). The culture was then switched to a glial differentiation medium (modified Bottenstein-Sato medium; see, Bottenstein J, et al., “The growth of cells in serum-free hormone-supplemented media,” Methods Enzymol. 58:94-109 (1979); and Bottenstein J, et al., “Selective survival of neurons from chick embryo sensory ganglionic dissociates utilizing serum-free supplemented medium,” Exp. Cell Res. 125:183-190 (1980)) consisting of DMEM, N1 supplement (Sigma; St. Louis, Mo.), T3 (Sigma); 60 ng/ml), biotin (Sigma; 100 ng/ml) and cAMP (Sigma; 1 uM). FGF2 (R&D; 10 ng/ml) and/or EGF (Sigma; 10 ng/ml) was added to examine their effect on motor neuron differentiation and progenitor proliferation.
(§4) Immuno-fluorescent staining on coverslip cultures and free-floating brain sections was described previously. Zhang et al. (2001), supra; Pankratz et al., supra. The following primary antibodies were used in the present study: anti-Olig2 (goat IgG, 1:500, sc-19969, Santa Cruz Biotechnology; Santa Cruz, Calif.), anti-βIII-tubulin (TuJ1, mlgG 1:5000, Sigma), anti-GFAP (mlgG 1:5000, Chemicon), anti-NG2 (mlgG 1:400, BD Pharmingen), anti-HB9 (mlgG 1:50, DSHB, Iowa City, Iowa), anti-PDGFRα (rat IgG 1:1000, gift from Dr. Stallcup WILLIAM STALLCUP, Burnham Institute for Medical Research, burnham.org/default.asp?contentID=203 on the World Wide Web) (Nishiyama A, et al., “Colocalization of NG2 proteoglycan and PDGF alpha-receptor on O2A progenitor cells in the developing rat brain,” J. Neurosci. Res. 43:299-314 (1996)), anti-O4 (1:50, mouse IgM, Chemincon MAB345), MBP (1:500, rabbit IgG, Chemicon), anti-human nuclei (1:200, mouse IgG, Chemicon). Specificity of the antibodies was first tested in embryonic brain and spinal cord tissues. Li et al., supra; and Pankratz et al., supra. Negative controls without primary and secondary antibody were performed in all experiments to monitor non-specific staining. The stained samples were visualized with a Nikon TE600 fluorescent scope equipped with a SPOT camera and software (Diagnostic Instruments; Sterling Heights, Mich.), as well as a Nikon C1 laser scanning confocal microscope.
(§5) For quantification of stained cell populations, optical fields were randomly selected with fixed ROI (region of interest) frame using cell counter plugin of ImageJ (Abramoff M, et al., “Image Processing with ImageJ,” Biophoton. Int. 11:36-42 (2004)) from independent coverslips of the same group. At least three coverslips were counted for every group. The experiments were repeated three times with different batches of cells. Statistical analyses were performed using ANOVA with R (R_Development_Core_Team, 2007).
Continued SHH signaling was required for maintaining gliogenic Olig2 progenitors. Gliogenic Olig2 progenitor cultures (day 35) were grown in the presence or absence of purmorphamine (1 uM), or the presence of cyclopamine (5 μM) for 2 weeks. […] Thus, SHH signaling was continuously needed to maintain the Olig2 progenitors, even though exogenous SHH is now not necessary.

[3] = tested on: hESC-derived Olig2 progenitors; assay: Motor neuron differentiation of Olig2 progenitors (HB9 and Olig2 immunostaining); details: for cells expressing HB9: day 35, cultures with purmorphamine from day 24, with or without FGF2 10 ng/ml; for HB9 expression: day 24 to 35, combined with purmorphamine, FGF2 or EGF 10 ng/ml
Text: as §3, §4, §5
FGF2 (10 ng/ml) was applied to the culture alongside purmorphamine at day 24 (following the appearance of Olig2, but before the differentiation of HB9+ motor neurons). […] Li et al., supra; and Li X & Zhang S, “In vitro differentiation of neural precursors from human embryonic stem cells,” Methods Mol. Biol. 331:169-177 (2006). […] Accordingly, a much larger population (55%) of Olig2 cells was present when FGF2 was present early on. RT-PCR analyses confirmed that Ngn2 and HB9 expression was repressed. Cultures with FGF2 alone (without the presence of SHH or purmorphamine) had few, if any, HB9+ motor neurons or Olig2-expressing progenitors (see FIGS. 4B, C).

[4] = tested on: hESC-derived neuroepithelial cells; assay: Olig2 induction from hESC-derived neuroepithelial cells (immunostaining); details: for Olig2-expressing progenitors: treatment during Olig2 induction, SHH 100 ng/ml, purmorphamine 1 μM, day 35
Procedure: hESCs (line H1 and H9; WiCell Research Institute; Madison, Wis.) were cultured on irradiated mouse embryonic fibroblasts (MEF) in a 6-well plate. […] Differentiated colonies were marked and removed physically with a pipette tip and the stem cell state was periodically monitored by expression of Oct4 and SSEA4.
hESCs were then differentiated to primitive neuroepithelial cells in an adherent colony culture for 10 days in a neural induction medium consisting of DMEM/F12, N2 supplement and non-essential amino acids, as detailed elsewhere. […] Chem. Soc. […] The neuroepithelial colonies were gently blown off the surface by a pipette and grown as floating clusters in suspension in the same medium.
as §1, §2

[5] = tested on: hESC-derived Olig2 progenitors; assay: Progenitor proliferation (Ki67 positive cells); details: 10 ng/ml, day 24 to 35
Text: as §3
To determine pro-proliferation effects of FGF2, we used another mitogen, EGF, as a control. […] Thus, FGF2 appeared to increase the Olig2+ cells by preventing the differentiation of Olig2 progenitors to motor neurons.

[6] = tested on: hESC-derived Olig2 progenitors; assay: FACS analysis of OLIG2+ population; details: day 50, with FGF2 versus without FGF2
[7] = tested on: hESC-derived Olig2 progenitors; assay: Differentiation of Olig2 progenitors to OPCs in glial differentiation medium (marker immunostaining); details: progenitors cultured in the presence of FGF2 throughout; 13-14 weeks
[8] = tested on: hESC-derived Olig2 progenitors; assay: RT-PCR gene expression in progenitor cultures

With `c1ccc2c(Oc3nc(Nc4ccc(N5CCOCC5)cc4)c4ncn(C5CCCCC5)c4n3)cccc2c1` [purmorphamine] the “timing of OPC differentiation (PDGFRα, NG2, Sox10)” value [1] was “did not speed up the differentiation of OPCs”, the “OLIG2/PDGFRa double positive OPCs” value [1] was “present” and the “PDGFRα+ OPCs” value ([1]; treated day 35 to 50, examined day 100) was “appear”. The “OLIG2+/NKX2.2+ population” value [2] was “present”, the “more Olig2/Nkx2.2 double positive cells” value ([2]; purmorphamine 1 uM day 35 to 50, day 50, printed comparator: cultures with cyclopamine) was “about 40%” and the “cells expressing Olig2 and/or Nkx2.2” value [2] was “co-express; also recorded: sustained Olig2 progenitor population”. For the same molecule, the “cells expressing HB9” value [3] was 40-50%, the “concentration that produced the highest proportion of Olig2 progenitors” value [4] was 1 µM and the “induction of Olig2 compared with SHH” value ([4]; purmorphamine 1 uM replacing SHH, p<0.0001) was “earlier and more potent induction of Olig2”. The “earlier induction of Olig2 expression than SHH” value ([4]; purmorphamine versus SHH) was 4 to 5 days and the Olig2-expressing progenitors [4] was “present”.

With FGF2: Fibroblast Growth Factor 2 (R&D) the “proportion of Ki67 positive cells” value [5] was “does not selectively alter”, the “decrease in the OLIG2+ population (FACS)” value [6] was 10% and the total cells generated ([1]; FGF2 with purmorphamine days 24-35 versus purmorphamine alone) was “substantially more total cells”. For the same molecule, the “timing of OPC differentiation (PDGFRα, NG2, Sox10)” value [1] was “did not speed up the differentiation of OPCs”, the “PDGFRα+ OPCs (in words)” value [1] was “similar” and the Nkx2.2 progenitors ([2]; FGF2 continued from day 35, 7th week) was “did not appear to change significantly”. For the same molecule, the “Olig2/Nkx2.2 double positive cells” value ([2]; FGF2 continued from day 35, examined day 50 (7th week)) was “decreased; also recorded: few double positive cells”, the “GFAP+ astrocytes” value [7] was 35% and the “PDGFRa+ OPCs” value [7] was 4%. For the same molecule, the “βIII tubulin+ neurons” value [7] was 53%, the “population of Olig2 cells” value ([3]; FGF2 10 ng/ml with purmorphamine from day 24, day 35) was 55% and the “HB9+ motor neurons or Olig2-expressing progenitors” value ([3]; FGF2 alone, without SHH or purmorphamine) was “few, if any”. The HB9-expressing cells ([3]; FGF2 removed at day 35 and RA added back, one to two weeks later) was “hardly any”, the HB9 expression [3] was “blocks HB9 expression; also recorded: nearly completely blocked HB9 expression” and the “cells expressing HB9” value [3] was “less than 5%”. For the same molecule, the “increase of OLIG2+ cells” value ([3]; with presence of Pur, 12 days from day 24) was “about 50%”, the “Ngn2 and HB9 expression (RT-PCR)” value ([8]; FGF2 10 ng/ml with purmorphamine, day 24 to 35) was “repressed” and the “expression of NFIA (RT-PCR)” value ([8]; FGF2 from day 35) was “promoted the expression of NFIA”. The “expression of Olig2 (RT-PCR)” value ([8]; FGF2 from day 35 in presence of purmorphamine) was “compromises the effect of purmorphamine to maintain expression of Olig2”, the “SHH transcript (quantitative RT-PCR)” value ([8]; day 50, FGF2 from day 35) was “decreases SHH by half” and the “transcription of GLI2 and GLI3 (quantitative RT-PCR)” value ([8]; day 50, FGF2 from day 35) was “increases”.

`CC1=C2C[C@H]3[C@@H](CC=C4C[C@@H](O)CC[C@@]43C)[C@@H]2CC[C@]12O[C@@H]1C[C@H](C)CN[C@H]1[C@H]2C` [cyclopamine] was tested, and the “OLIG2/PDGFRa double positive OPCs” value [1] was “rarely; also recorded: lack of OPCs”, the “PDGFRα+ OPCs (in words)” value [1] was “few OPCs were present” and the “OLIG2+/NKX2.2+ population” value [2] was “not and few cells expressing Olig2 and/or Nkx2.2”. The “cells expressing Olig2 and/or Nkx2.2” value [2] was “near complete lack of cells expressing Olig2 and/or Nkx2.2” and the Olig2-expressing progenitors [4] was “rarely; also recorded: blocked Olig2 transcription; also recorded: near absence of Olig2 cells”.

In the case of sonic hedgehog [SHH], the “timing of OPC differentiation (PDGFRα, NG2, Sox10)” value [1] is reported as “did not speed up the differentiation of OPCs”, the “OLIG2/PDGFRa double positive OPCs” value [1] is reported as “present” and the “cells expressing Olig2 and/or Nkx2.2” value [2] is reported as “co-express; also recorded: sustained Olig2 progenitor population”. For the same molecule, the “onset of Olig2 expression” value ([4]; one week following SHH treatment) was ~23 day of differentiation and the Olig2-expressing progenitors [4] was “present”.

“EGF: mitogen used as a control for FGF2 (Sigma)” was tested, and the “proportion of Ki67 positive cells” value [5] was “does not selectively alter; also recorded: did not increase”, the “timing of OPC differentiation (PDGFRα, NG2, Sox10)” value [1] was “did not speed up the differentiation of OPCs” and the “proportion of Olig2 positive cells” value ([3]; EGF 10 ng/ml, day 24 to 35) was “did not increase”. The HB9 expression [3] was “moderately decreases”.

B1: Noggin: a BMP antagonist known to promote OPC differentiation (protein, UniProt Q13253 28-232, looked up)
Noggin: QHYLHIRPAPSDNLPLVDLIEHPDPIFDPKEKDLNETLLRSLLGGHYDPGFMATSPPEDRPGGGGGAAGGAEDLAELDQLLRQRPSGAMPSEIKGLEFSEGLAQGKKQRLSKKLRRKLQMWLWSQTFCPVLYAWNDLGSRFWPRYVKVGSCFSKRSCSVPEGMVCKPSKSVHLTVLRWRCQRRGGQRCGWIPIQYPIISECKCSC
In the case of B1, the “timing of OPC differentiation” value ([1]; Noggin 100 ng/ml at day 35 together with SHH 100 ng/ml) is reported as “did not result in earlier differentiation of OPCs”.
